Results: ChEMBL document CHEMBL1201862, “PubChem BioAssay data set” (2004)
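Method: 48-hour compound exposure of cells in 96-well plates, five concentrations, linear interpolation of endpoints. GI50 = concentration required for 50% inhibition of growth.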 Calls of active or inactive are those of the source. Rule as the data show it: active = GI50 up to about 1.1 µM and inactive = higher.

Key:
Assay in all cases: growth of human tumour cells (NCI), 48 h
[1] = test system: SW-620
[2] = test system: KM-20L2
[3] = test system: DMS-114
[4] = test system: A549
[5] = test system: HCT-116
[6] = test system: HL-60
[7] = test system: SF-539
[8] = test system: HCC 2998
[9] = test system: K562
[10] = test system: ACHN
[11] = test system: MOLT-4
[12] = test system: 786-0
[13] = test system: XF498
[14] = test system: RPMI-8226
[15] = test system: NCI-H226
[16] = test system: M19-MEL
[17] = test system: COLO 205
[18] = test system: OVCAR-8
[19] = test system: DLD-1
[20] = test system: SN12C
[21] = test system: UACC-257
[22] = test system: HOP-92
[23] = test system: NCI-H460
[24] = test system: NCI-H522
[25] = test system: EKVX
[26] = test system: M14
[27] = test system: OVCAR-3
[28] = test system: RXF 393
[29] = test system: KM12
[30] = test system: SNB-19
[31] = test system: HT-29
[32] = test system: SNB-75
[33] = test system: SK-MEL-28
[34] = test system: HOP-62
[35] = test system: SF-295
[36] = test system: UO-31
[37] = test system: LOX IMVI
[38] = test system: DMS-273
[39] = test system: NCI-H23
[40] = test system: SK-MEL-2
[41] = test system: TK-10
[42] = test system: SR
[43] = test system: U-251
[44] = test system: SNB-78
[45] = test system: SK-OV-3
[46] = test system: Malme-3M
[47] = test system: CCRF-CEM
[48] = test system: IGROV-1
[49] = test system: HOP-18
[50] = test system: UACC-62
[51] = test system: SF-268
[52] = test system: SK-MEL-5
[53] = test system: LXFL 529
[54] = test system: HCT-15
[55] = test system: CAKI-1
[56] = test system: OVCAR-5
[57] = test system: OVCAR-4

Measured: GI50

CC(=O)OC1CC2(C)OC(Cc3ccccc32)O1 (stereo not drawn)
inactive: [1] > 100 µM | [2] > 100 µM | [3] > 100 µM | [4] > 100 µM | [5] > 100 µM | [6] > 100 µM | [7] > 100 µM | [8] > 100 µM | [9] > 100 µM | [10] > 100 µM | [11] > 100 µM | [12] > 100 µM | [13] > 100 µM | [14] > 100 µM | [15] > 100 µM | [16] > 100 µM | [17] > 100 µM | [18] > 100 µM | [19] > 100 µM | [20] > 100 µM | [21] > 100 µM | [22] 53.6 µM | [23] > 100 µM | [24] > 100 µM | [25] > 100 µM | [26] > 100 µM | [27] > 100 µM | [28] > 100 µM | [29] > 100 µM | [30] > 100 µM | [31] > 100 µM | [32] 65.9 µM | [33] > 100 µM | [34] > 100 µM | [35] > 100 µM | [36] > 100 µM | [37] > 100 µM | [38] > 100 µM | [39] > 100 µM | [40] > 100 µM | [41] > 100 µM | [42] > 100 µM | [43] > 100 µM | [44] > 100 µM | [45] > 100 µM | [46] > 100 µM | [47] > 100 µM | [48] > 100 µM | [49] > 100 µM | [50] > 100 µM | [51] > 100 µM

O=C(O)C(CO)NC(=O)n1c2ccccc2c2ccccc21 (stereo not drawn)
> 100 µM: [54]
inactive: [1] > 100 µM | [3] > 100 µM | [4] > 100 µM | [5] > 100 µM | [6] > 100 µM | [7] > 100 µM | [8] > 100 µM | [9] > 100 µM | [10] > 100 µM | [11] > 100 µM | [12] > 100 µM | [13] > 100 µM | [14] > 100 µM | [15] > 100 µM | [16] > 100 µM | [17] > 100 µM | [18] > 100 µM | [19] > 100 µM | [20] > 100 µM | [21] > 100 µM | [22] > 100 µM | [23] > 100 µM | [24] > 100 µM | [25] > 100 µM | [27] > 100 µM | [28] > 100 µM | [29] > 100 µM | [30] > 100 µM | [52] > 100 µM | [31] > 100 µM | [33] > 100 µM | [34] > 100 µM | [35] > 100 µM | [53] > 100 µM | [37] > 100 µM | [38] > 100 µM | [39] > 100 µM | [40] > 100 µM | [41] > 100 µM | [42] > 100 µM | [45] > 100 µM | [46] > 100 µM | [47] > 100 µM | [48] > 100 µM | [55] > 100 µM | [49] > 100 µM | [50] > 100 µM | [51] > 100 µM

O=C(Nc1c(C(=O)NC2CCCCC2)[nH]c(=O)[nH]c1=O)c1ccc(Cl)cc1
active: [30] < 0.01 µM
> 100 µM: [54]
inactive: [1] > 100 µM | [3] > 100 µM | [4] > 100 µM | [5] > 100 µM | [6] > 100 µM | [7] > 100 µM | [9] > 100 µM | [10] > 100 µM | [11] > 100 µM | [13] > 100 µM | [14] > 100 µM | [15] > 100 µM | [16] > 100 µM | [17] > 100 µM | [18] > 100 µM | [19] > 100 µM | [20] > 100 µM | [22] > 100 µM | [23] > 100 µM | [24] 44.3 µM | [56] > 100 µM | [25] > 100 µM | [26] > 100 µM | [27] > 100 µM | [28] 79.6 µM | [29] 49.3 µM | [52] > 100 µM | [57] > 100 µM | [31] > 100 µM | [32] 22 µM | [33] > 100 µM | [34] > 100 µM | [35] > 100 µM | [36] > 100 µM | [53] > 100 µM | [37] > 100 µM | [41] > 100 µM | [42] > 100 µM | [45] > 100 µM | [46] > 100 µM | [47] > 100 µM | [48] > 100 µM | [55] > 100 µM | [49] > 100 µM | [50] > 100 µM | [51] > 100 µM
